Measured values: US20140323522A1, “Method of Treating Cancer” (Exelixis, Inc., priority 2011, published 2014)

Tests used:
[1] = test system: castration-resistant prostate cancer (CRPC) with bone metastases; test: Phase 2 trial (NCT00940225) case studies of CRPC patients with bone metastases treated with compound 1; format: in vivo, human
From the text: All patients provided informed consent before study screening.

Human CRPC ARCaPM cells = test: ARCaPM in vivo efficacy study (intratibial xenografts); parameters: species or system nude mice
Method: Micro-CT-based quantification (Scanco 40 instrument) of 5 tibiae per group with 2 measurements each were used. ([…]) indicates vehicle tibia lacking detectable tumor in the section evaluated by histology. […] Bioquant® Image Analysis software was used for the histomorphometry of H&E-stained sections. Tumor (8A) and bone area (8B) were measured in the evaluated sections by tracing their outline within an area of 1×1 mm^2 (total tissue area) near the center of the growth plate. Percentages relative to the total tissue area were calculated. […] Bioquant® Image Analysis software was used for the histomorphometry of consecutive H&E- and TRAP-stained sections. (9A) Based on TRAP stain, OC numbers were counted along the border of the trabecular bone within the same tissue area used to assess tumor and bone area (FIG. 8). The ratio of OCs per bone perimeter (OC/mm) was calculated. (9B) OBs were counted along the trabecular bone surface in the same area on the H&E-stained sections and the number of OBs per bone perimeter (0 B/mm) was calculated. ([…]) indicates vehicle-treated mice without detectable tumor in the corresponding tumor area analysis (FIG. 8A). (A) indicates compound 1-treated mice with detectable tumor in the corresponding tumor area analysis (FIG. 8A).

[2] = test system: proteins related to the VEGF pathway (VEGF, NRP-1, HIF1α); test: IHC and single quantum-dot labeling of ARCaPM tumors in tibia sections, VEGF pathway proteins; format: in vivo, nude mice; conditions: 10 mg/kg or 30 mg/kg, 7 weeks, vs vehicle
[3] = test system: CD34+ cells derived from human bone marrow; test: in vitro osteoclast (OC) differentiation assay; format: cell-based; conditions: day 7
mature OCs = test: in vitro osteoclast (OC) activity assay (bone resorption by mature OCs); format: cell-based, human; conditions: day 10
Mouse KS482 cells [4] = test: in vitro osteoblast (OB) differentiation assay; format: cell-based; conditions: day 8
Mouse KS482 cells [5] = test: in vitro osteoblast (OB) bone-forming activity assay; format: cell-based
oral bioavailability = conditions: in vivo
xenograft tumor models = test: xenograft tumor models; conditions: in vivo
[6] = phase 1 clinical study, tolerability
[7] = test system: pancreatic neuroendocrine tumor; test: murine pancreatic neuroendocrine tumor model; conditions: mouse, in vivo
[8] = test system: endothelial cells and tumor cells; test: apoptosis of endothelial cells and tumor cells
[9] = 10 mg/kg or 30 mg/kg, 7 weeks, compared to vehicle
[10] = 10 mg/kg or 30 mg/kg, 7 weeks, relative to vehicle

Structure (SMILES): COc1cc2nccc(Oc3ccc(NC(=O)C4(C(=O)Nc5ccc(F)cc5)CC4)cc3)c2cc1OC [Compound 1, N-(4-{[6,7-bis(methyloxy)quinolin-4-yl]oxy}phenyl)-N′-(4-fluorophenyl)cyclopropane-1,1-dicarboxamide]
- Hemoglobin (best response, change) ([1]; Patient 1, 100 mg dose): +1.4 g/dL
- Pain (best response) ([1]; Patient 1, 100 mg dose): Improvement
- Tumor response (best response) ([1]; Patient 1, 100 mg dose): −41%
- tALP (best response, change) ([1]; Patient 1, 100 mg dose): −77%
- increase in hemoglobin compared with baseline ([1]; Patient 1, Week 2): 1.4 g/dL
- CT scan response category ([1]; Patient 1, Week 6): partial response (PR)
- CT scan, decrease in measurable target lesions ([1]; Patient 1, Week 6): 33%
- bone scan, radiotracer uptake by bone metastases ([1]; Patient 1, Week 6): dramatic decrease in radiotracer uptake
- bone lesions on bone scan ([1]; Patient 1, Week 12): near complete resolution of bone lesions
- decrease in target lesions ([1]; Patient 1, Week 12, stable through Week 18): 44%
- adverse event leading to withdrawal ([1]; Patient 1, Week 18): Grade 3 diarrhea
- PSA level ([1]; Patient 1, Week 18 (430 ng/mL at baseline)): 93.5 ng/mL
- serum tALP level ([1]; Patient 1, Week 18 (689 U/L at baseline)): 159 U/L
- bone pain ([1]; Patient 1, four weeks after start): significant reduction in bone pain
- Bone scan (best response) ([1]; Patient 2, 100 mg dose): Improvement
- Hemoglobin (best response, change) ([1]; Patient 2, 100 mg dose): +1.8 g/dL
- Pain (best response) ([1]; Patient 2, 100 mg dose): Pain-free
- Tumor response (best response) ([1]; Patient 2, 100 mg dose): −20%
- tALP (best response, change) ([1]; Patient 2, 100 mg dose): −6%
- bone pain ([1]; Patient 2, Week 4): reduction in bone pain
- CT scan, decrease in target lesions ([1]; Patient 2, Week 6): 13%
- bone scan, radiotracer uptake by bone lesions ([1]; Patient 2, Week 6): slight flair in radiotracer uptake
- bone scan, radiotracer uptake ([1]; Patient 2, Week 12): substantial reduction of radiotracer uptake
- decrease in measurable disease ([1]; Patient 2, Week 12): 20%
- increase in hemoglobin compared with baseline ([1]; Patient 2, Week 12): 1.8 g/dL
- Hemoglobin (best response, change) ([1]; Patient 3, 100 mg dose): +2.2 g/dL
- PSA (best response, change) ([1]; Patient 3, 100 mg dose): −57%
- Pain (best response) ([1]; Patient 3, 100 mg dose): Pain-free
- Tumor response (best response) ([1]; Patient 3, 100 mg dose): −51%
- tALP (best response, change) ([1]; Patient 3, 100 mg dose): −77%
- increase in hemoglobin compared with baseline ([1]; Patient 3, Week 2): 2.2 g/dL
- CT scan, decrease in measurable target lesions ([1]; Patient 3, Week 6): 43%
- bone scan, radiotracer uptake ([1]; Patient 3, Week 6): dramatic reduction in radiotracer uptake
- bone lesions on bone scan ([1]; Patient 3, Week 12): complete resolution of bone lesions
- decrease in measurable disease ([1]; Patient 3, Week 12): 51%
- PSA level ([1]; Patient 3, Week 18 (2.4 ng/mL at screening)): 1.2 ng/mL
- serum tALP level ([1]; Patient 3, Week 18 (869 U/L at baseline)): 197 U/L
- pain ([1]; Patient 3, after three weeks): complete resolution of pain
- osteoblasts (OBs) along the trabecular bone, tibia sections (Human CRPC ARCaPM cells; [9]): increased OBs
- osteoclasts (OCs) along the trabecular bone, tibia sections (Human CRPC ARCaPM cells; [9]): no change in OCs
- bone mineral density, micro-CT (Human CRPC ARCaPM cells; [10]): preserves
- bone volume/tissue volume (BV/TV), micro-CT (Human CRPC ARCaPM cells; [10]): preserves
- progression of CRPC ARCaPM tumor xenografts in bone (X-ray, micro-CT of tibiae) (Human CRPC ARCaPM cells; 30 mg/kg, 7 weeks of treatment, vs vehicle): blocks progression
- progression of CRPC ARCaPM tumor xenografts in bone (H&E stain of tibia sections) (Human CRPC ARCaPM cells; 7 weeks of treatment, vs vehicle): blocks progression
- IHC staining of proteins related to the VEGF pathway (VEGF, NRP-1, HIF1α) in ARCaPM tumors [2]: decreased IHC staining
- OC differentiation (secreted TRACP 5b levels) [3]: inhibits in vitro osteoclast (OC) differentiation in a dose-dependent manner
- ability of mature OCs to resorb bone (secreted CTX normalized to TRACP 5b) (mature OCs): does not affect
- OB differentiation (cellular ALP activity) (Mouse KS482 cells [4]): biphasic effects
- OB bone forming activity (organic and inorganic bone matrix) (Mouse KS482 cells [5]): biphasic effects
- oral bioavailability (oral bioavailability): orally bioavailable
- tumor growth in xenograft tumor models (xenograft tumor models): causes tumor regression
- most commonly observed adverse events [6]: fatigue, diarrhea, anorexia, rash, and palmar-plantar erythrodysesthesia
- tolerability [6]: generally well-tolerated
- overall survival [7]: substantially improves
- tumor invasiveness and metastasis [7]: significantly reduces
- apoptosis of endothelial cells and tumor cells [8]: rapidly induces apoptosis
